This note sets out measurements from patent publication US9150526B2, “Biaryl-propionic acid derivatives and their use as pharmaceuticals” (SANOFI, priority 2013, dated 2015).

A word on the IC50: it is the midpoint of a concentration-inhibition curve.

This experiment has as its system Recombinant human cathepsin A. Put plainly: Cathepsin A inhibitory activity (Bodipy FL-bradykinin substrate, microfluidic capillary electrophoresis). The class given is biochemical. To be noted: read-out: CATH A IC50. On the procedure:
Pharmacological Tests a) Cathepsin a Inhibitory Activity
Recombinant human cathepsin A (residues 29-480, with a C-terminal 10-His tag; R&D Systems, #1049-SE) was proteolytically activated with recombinant human cathepsin L (R&D Systems, #952-CY). Briefly, cathepsin A was incubated at 10 μg/ml with cathepsin L at 1 μg/ml in activation buffer (25 mM 2-(morpholin-4-yl)-ethanesulfonic acid (MES), pH 6.0, containing 5 mM dithiothreitol (DTT)) for 15 min at 37° C.
The activated cathepsin A was diluted in assay buffer (25 mM MES, pH 5.5, containing 5 mM DTT) and mixed with the test compound (dissolved in assay buffer containing (v/v) 3% DMSO) or, in the control experiments, with the vehicle in a multiple assay plate. After incubation for 15 min at room temperature, as substrate then bradykinin carrying an N-terminal ®Bodipy FL (4,4-difluoro-5,7-dimethyl-4-bora-3a,4a-diaza-s-indacene-3-propionyl) label (JPT Peptide Technologies GmbH; dissolved in assay buffer) was added to the mixture. The final concentration of cathepsin A was 833 ng/ml and the final concentration of labeled bradykinin 2 μM. After incubation for 15 min at room temperature the reaction was stopped by the addition of stop buffer (130 mM 2-(4-(2-hydroxy-ethyl)-piperazin-1-yl)-ethanesulfonic acid, pH 7.4, containing (v/v) 0.013% ®Triton X-100, 0.13% Coating Reagent 3 (Caliper Life Sciences), 6.5% DMSO and 20 μM ebelactone B (Sigma, # E0886)).
Uncleaved substrate and product were then separated by a microfluidic capillary electrophoresis on a LabChip® 3000 Drug Discovery System (12-Sipper-Chip; Caliper Life Sciences) and quantified by determination of the respective peak areas. Substrate turnover was calculated by dividing product peak area by the sum of substrate and product peak areas, and the enzyme activity and the inhibitory effect of the test compound thus quantified.

On to `COc1ccc(OC)c(-c2cc(Cl)cc(C(CC(=O)O)c3ncc(C)s3)c2)c1` (stereo not shown) [compound 76], for which the IC50 amounted to 28 nM.

As to `COc1ccc(CO)cc1-c1cc(Cl)cc(C(CC(=O)O)c2ncc(C)s2)c1` (stereo not shown) [compound 77], the IC50 was determined as 29 nM. For the compound `COc1ccc(F)c(F)c1-c1cc(Cl)cc(C(CC(=O)O)c2ncc(C)s2)c1` (stereo not shown) [compound 78], the IC50 was 37 nM. Consider `COc1ccc(F)cc1-c1cc(Cl)cc(C(CC(=O)O)c2ncc(C)s2)c1` (stereo not shown) [compound 79], for which the IC50 stood at 38 nM. Regarding `CCOc1ccccc1-c1cc(Cl)cc(C(CC(=O)O)c2ncc(C)s2)c1` (stereo not shown) [compound 80], the concentration for half-maximal inhibition (IC50) is 47 nM. In the case of `COc1ccc(C)cc1-c1cc(Cl)cc(C(CC(=O)O)c2ncc(C)s2)c1` (stereo not shown) [compound 81], the IC50 was determined as 52 nM. On to `COc1cccc(CO)c1-c1cc(Cl)cc(C(CC(=O)O)c2ncc(C)s2)c1` (stereo not shown) [compound 82], for which the IC50 was found to be 52 nM. In the case of `COc1ccc(-c2cc(Cl)cc(C(CC(=O)O)c3ncc(C)s3)c2)c(OC)c1` (stereo not shown) [compound 83], the IC50 came out at 53 nM. As for `COc1cccc(Cl)c1-c1cc(Cl)cc(C(CC(=O)O)c2ncc(C)s2)c1` (stereo not shown) [compound 84], the IC50 is 53 nM. For `COc1ccc(C(C)(C)C)cc1-c1cc(Cl)cc(C(CC(=O)O)c2ncc(C)s2)c1` (stereo not shown) [compound 85], the IC50 was 55 nM. For `CCOc1ccc(C)cc1-c1cc(Cl)cc(C(CC(=O)O)c2ncc(C)s2)c1` (stereo not shown) [compound 86], the IC50 worked out at 65 nM. In the case of `COc1ccc(C(C)C)cc1-c1cc(Cl)cc(C(CC(=O)O)c2ncc(C)s2)c1` (stereo not shown) [compound 87], the IC50 was 93 nM. The same measure for `COc1cccc(C#N)c1-c1cc(Cl)cc(C(CC(=O)O)c2ncc(C)s2)c1` (stereo not shown) [compound 88]: 103 nM; for `COc1cc(C(N)=O)ccc1-c1cc(Cl)cc(C(CC(=O)O)c2ncc(C)s2)c1` (stereo not shown) [compound 89]: 118 nM; for `COc1cc(F)ccc1-c1cc(Cl)cc(C(CC(=O)O)c2ncc(C)s2)c1` (stereo not shown) [compound 90]: 119 nM. For the compound `COc1c(F)cc(F)cc1-c1cc(Cl)cc(C(CC(=O)O)c2ncc(C)s2)c1` (stereo not shown) [compound 91], the IC50 turned out to be 131 nM.

Take `COc1c(Cl)cccc1-c1cc(Cl)cc(C(CC(=O)O)c2ncc(C)s2)c1` (stereo not shown) [compound 92]: the IC50 came out at 134 nM. Regarding `COc1c(C)cccc1-c1cc(Cl)cc(C(CC(=O)O)c2ncc(C)s2)c1` (stereo not shown) [compound 93], the IC50 came out at 164 nM. Regarding `COc1ccc(OC(F)(F)F)cc1-c1cc(Cl)cc(C(CC(=O)O)c2ncc(C)s2)c1` (stereo not shown) [compound 94], the 50% inhibitory concentration (IC50) amounted to 165 nM.

As to `Cc1cnc(C(CC(=O)O)c2cc(Cl)cc(-c3ccccc3OC(F)(F)F)c2)s1` (stereo not shown) [compound 95], the IC50 turned out to be 221 nM. Turning to `COc1cc(C)cc(OC)c1-c1cc(F)cc(C(CC(=O)O)c2ncc(C)s2)c1` (stereo not shown) [compound 99], the 50% inhibitory concentration (IC50) was 28 nM. Turning to `COc1ccc(C)cc1-c1cc(F)cc(C(CC(=O)O)c2ncc(C)s2)c1` (stereo not shown) [compound 100], the half-maximal inhibitory concentration (IC50) came to 52 nM. With `COc1cccc(F)c1-c1cc(F)cc(C(CC(=O)O)c2ncc(C)s2)c1` (stereo not shown) [compound 101] the figure was 56 nM; with `COc1cccc(Cl)c1-c1cc(F)cc(C(CC(=O)O)c2ncc(C)s2)c1` (stereo not shown) [compound 105], 96 nM. For the compound `COc1ccc(C(C)C)cc1-c1cccc([C@H](CC(=O)O)c2nnc(C)o2)c1` [compound 108], the IC50 came to 6260 nM. Turning to `COc1ccccc1-c1cc(F)cc(C(CC(=O)O)c2ncc(C)s2)c1` (stereo not shown) [compound 110], the IC50 came out at 116 nM. As for `COc1ccc(OC)c(-c2cc(F)cc(C(CC(=O)O)c3ncc(C)s3)c2)c1` (stereo not shown) [compound 112], the concentration for half-maximal inhibition (IC50) is 122 nM. In the case of `COc1ccc(C(C)(C)C)cc1-c1cc(F)cc(C(CC(=O)O)c2ncc(C)s2)c1` (stereo not shown) [compound 113], the half-inhibitory concentration (IC50) turned out to be 124 nM. On to `CCOc1ccc(C)cc1-c1cc(F)cc(C(CC(=O)O)c2ncco2)c1` (stereo not shown) [compound 117], for which the IC50 was 155 nM.

With `COc1ccc(C(C)C)cc1-c1cc(F)cc(C(CC(=O)O)c2ncc(C)s2)c1` (stereo not shown) [compound 119], the IC50 came out at 195 nM. `COc1ccc(-c2cc(F)cc(C(CC(=O)O)c3ncc(C)s3)c2)c(OC)c1` (stereo not shown) [compound 120]: the IC50 was 199 nM. Consider `COc1ccc(OC(F)(F)F)cc1-c1cc(F)cc(C(CC(=O)O)c2ncco2)c1` (stereo not shown) [compound 122], for which the 50% inhibitory concentration (IC50) was found to be 222 nM. Regarding `COc1cc(F)ccc1-c1cc(F)cc(C(CC(=O)O)c2ncc(C)s2)c1` (stereo not shown) [compound 123], the IC50 was 246 nM. `COc1ccc(OC(F)(F)F)cc1-c1cc(F)cc(C(CC(=O)O)c2ncc(C)s2)c1` (stereo not shown) [compound 124]: the half-maximal inhibitory concentration (IC50) is 275 nM. The same measure for `COc1c(C)cccc1-c1cc(F)cc(C(CC(=O)O)c2ncc(C)s2)c1` (stereo not shown) [compound 128]: 410 nM. For `COc1c(F)cc(F)cc1-c1cc(F)cc(C(CC(=O)O)c2ncco2)c1` (stereo not shown) [compound 129], the IC50 worked out at 457 nM. With `O=C(O)CC(c1cc(F)cc(-c2ccccc2OC(F)(F)F)c1)c1ncco1` (stereo not shown) [compound 130], the IC50 is 466 nM. With `COc1cccc(OC)c1-c1cccc(C(CC(=O)O)c2nnc(C)o2)c1` (stereo not shown) [compound 135] the figure was 17 nM. With `COc1ccc(C)cc1-c1cccc(C(CC(=O)O)c2nnc(C)o2)c1` (stereo not shown) [compound 136] the figure was 24 nM; with `COc1cc(C)cc(OC)c1-c1cccc(C(CC(=O)O)c2nnc(C)o2)c1` (stereo not shown) [compound 137], 24 nM; with `COc1ccc(OC)c(-c2cccc(C(CC(=O)O)c3nnc(C)o3)c2)c1` (stereo not shown) [compound 138], 41 nM. Turning to `COc1ccc(F)cc1-c1cccc(C(CC(=O)O)c2nnc(C)o2)c1` (stereo not shown) [compound 139], the concentration for half-maximal inhibition (IC50) came to 60 nM. For the compound `COc1ccccc1-c1cccc(C(CC(=O)O)c2nnc(C)o2)c1` (stereo not shown) [compound 140], the IC50 was found to be 61 nM. As to `COc1ccc(CO)cc1-c1cccc(C(CC(=O)O)c2nnc(C)o2)c1` (stereo not shown) [compound 141], the IC50 amounted to 72 nM. With `COc1cccc(Cl)c1-c1cccc(C(CC(=O)O)c2nnc(C)o2)c1` (stereo not shown) [compound 142] the figure was 80 nM; with `COc1ccc(OC(F)(F)F)cc1-c1cccc(C(CC(=O)O)c2nnc(C)o2)c1` (stereo not shown) [compound 143], 85 nM. Turning to `CCOc1ccccc1-c1cccc(C(CC(=O)O)c2nnc(C)o2)c1` (stereo not shown) [compound 144], the IC50 worked out at 91 nM. `COc1cccc(F)c1-c1cccc(C(CC(=O)O)c2nnc(C)o2)c1` (stereo not shown) [compound 145]: the IC50 amounted to 116 nM. In the case of `COc1cc(F)ccc1-c1cccc(C(CC(=O)O)c2nnc(C)o2)c1` (stereo not shown) [compound 146], the IC50 came out at 129 nM. `COc1ccc(-c2cccc(C(CC(=O)O)c3nnc(C)o3)c2)c(OC)c1` (stereo not shown) [compound 147]: the IC50 amounted to 137 nM. With `Cc1nnc(C(CC(=O)O)c2cccc(-c3ccccc3OC(F)(F)F)c2)o1` (stereo not shown) [compound 148] the figure was 243 nM. Consider `COc1ccc(S(C)(=O)=O)cc1-c1cccc(C(CC(=O)O)c2nnc(C)o2)c1` (stereo not shown) [compound 149], for which the IC50 stood at 265 nM. The same measure for `COc1cccc(CO)c1-c1cccc(C(CC(=O)O)c2nnc(C)o2)c1` (stereo not shown) [compound 150]: 325 nM; for `COc1c(C)cccc1-c1cccc(C(CC(=O)O)c2nnc(C)o2)c1` (stereo not shown) [compound 151]: 571 nM. On to `COc1cccc(C#N)c1-c1cccc(C(CC(=O)O)c2nnc(C)o2)c1` (stereo not shown) [compound 152], for which the concentration for half-maximal inhibition (IC50) came to 652 nM. Consider `COc1ccc(C(C)C)cc1-c1cc(Cl)cc(C(CC(=O)O)c2nnc(C)o2)c1` (stereo not shown) [compound 153], for which the IC50 was 25 nM. Consider `COc1cccc(OC)c1-c1cc(Cl)cc(C(CC(=O)O)c2nnc(C)o2)c1` (stereo not shown) [compound 154], for which the IC50 is 5 nM. On to `COc1cc(C)cc(OC)c1-c1cc(Cl)cc(C(CC(=O)O)c2nnc(C)o2)c1` (stereo not shown) [compound 155], for which the IC50 was determined as 8 nM. On to `COc1cccc(C#N)c1-c1cc(Cl)cc(C(CC(=O)O)c2nnc(C)o2)c1` (stereo not shown) [compound 156], for which the 50% inhibitory concentration (IC50) is 104 nM. `COc1ccc2c(c1-c1cc(Cl)cc(C(CC(=O)O)c3nnc(C)o3)c1)OC(C)(C)C2` (stereo not shown) [compound 157]: the 50% inhibitory concentration (IC50) came to 17 nM. Consider `Cc1nnc(C(CC(=O)O)c2cc(Cl)cc(-c3ccccc3OC(F)(F)F)c2)o1` (stereo not shown) [compound 158], for which the IC50 came to 89 nM. Regarding `COc1ccc(C(C)C)cc1-c1cc(F)cc(C(CC(=O)O)c2nnc(C)o2)c1` (stereo not shown) [compound 160], the IC50 was 44 nM. For the compound `COc1cccc(C#N)c1-c1cc(F)cc(C(CC(=O)O)c2nnc(C)o2)c1` (stereo not shown) [compound 163], the IC50 was 446 nM. With `Cc1nnc(C(CC(=O)O)c2cc(F)cc(-c3ccccc3OC(F)(F)F)c2)o1` (stereo not shown) [compound 165] the figure was 231 nM; with `COc1ccc(Cl)cc1-c1cc(F)cc(C(CC(=O)O)c2nnc(C)o2)c1` (stereo not shown) [compound 166], 89 nM; with `COc1cccc(CO)c1-c1cc(F)cc(C(CC(=O)O)c2nnc(C)o2)c1` (stereo not shown) [compound 167], 400 nM. Consider `COc1ccc(OC(F)(F)F)cc1-c1cc(F)cc(C(CC(=O)O)c2nnc(C)o2)c1` (stereo not shown) [compound 168], for which the 50% inhibitory concentration (IC50) amounted to 165 nM.
